Reference: US12312370B2, “Immunoproteasome inhibitors” (Principia Biopharma Inc., priority 2017, dated 2025)

Experiments:
[1] = target: constitutive proteasome β5c unit (Homo sapiens, UniProt P28074); assay: Caliper-based proteasome enzymatic activity assay, β5c; format: biochemical; conditions: human recombinant constitutive proteasome 0.3 nM, FAM-labeled peptide substrate 1 μM, rt 3 h; read-out: β5c subunit IC50
[2] = target: immunoproteasome LMP7/B5i subunit (Homo sapiens, UniProt P28062); assay: Caliper-based proteasome enzymatic activity assay, LMP7; format: biochemical; conditions: human recombinant immunoproteasome 0.3 nM, FAM-labeled peptide substrate 1 μM, rt 3 h; read-out: LMP7 subunit IC50

| Compound | IC50 [1] | IC50 [2] |
| --- | --- | --- |
| C=C(F)C(=O)N1CCC[C@H](OC(=O)N[C@@H](Cc2ccc(F)cc2)B(O)O)C1 [Example 74, ((R)-1-(((((S)-1-(2-fluoroacryloyl)piperidin-3-yl)oxy)carbonyl)amino)-2-(4-fluorophenyl)ethyl)boronic acid] | 2100 nM | 149 nM |
| CC1(C)CCN(C(C)(C)C=C(C#N)C(=O)N2CCC[C@H](OC(=O)N[C@@H](Cc3ccc(C(F)(F)F)cc3)B(O)O)C2)C1 [Example 69, ((R)-1-(((((S)-1-(2-cyano-4-(3,3-dimethylpyrrolidin-1-yl)-4-methylpent-2-enoyl)piperidin-3-yl)oxy)carbonyl)amino)-2-(4-(trifluoromethyl)phenyl)ethyl)boronic acid] | 3370 nM | 26.1 nM |
| C=CC(=O)N1C2CCC1(COC(=O)N[C@@H](Cc1ccc(F)cc1)B(O)O)CC2 [Example 76, (R)-(1-((((7-acryloyl-7-azabicyclo[2.2.1]heptan-1-yl)methoxy)carbonyl)amino)-2-(4-fluorophenyl)ethyl)boronic acid] | 4030 nM | 21.1 nM |
| CC(C)C=C(C#N)C(=O)NCCCC[C@H](NC(=O)c1cccc(O)n1)C(=O)N[C@@H](CC(C)C)B(O)O [Example 7, ((R)-1-((S)-6-(2-cyano-4-methylpent-2-enamido)-2-(6-hydroxypicolinamido)hexanamido)-3-methylbutyl)boronic acid] | 1 nM | 1.3 nM |
| C=C(F)C(=O)N1C2CCC1(COC(=O)N[C@@H](Cc1ccc(F)cc1)B(O)O)CC2 [Example 75, (R)-(1-((((7-(2-fluoroacryloyl)-7-azabicyclo[2.2.1]heptan-1-yl)methoxy)carbonyl)amino)-2-(4-fluorophenyl)ethyl)boronic acid] | > 5000 nM | 129 nM |
| CC1(C)CN(C(C)(C)C=C(C#N)C(=O)N2C3CCC2(COC(=O)N[C@@H](Cc2ccccc2)B(O)O)CC3)CCO1 [Example 119, (R)-(1-((((7-(2-cyano-4-(2,2-dimethylmorpholino)-4-methylpent-2-enoyl)-7-azabicyclo[2.2.1]heptan-1-yl)methoxy)carbonyl)amino)-2-phenylethyl)boronic acid] | 685 nM | 1 nM |
| CC(C)(C=C(C#N)C(=O)N1CCC[C@H](OC(=O)N[C@@H](CC2=CCCC2)B(O)O)C1)N1CCOCC1 [Example 121, ((R)-1-(((((S)-1-(2-cyano-4-methyl-4-morpholinopent-2-enoyl)piperidin-3-yl)oxy)carbonyl)amino)-2-(cyclopent-1 en-1-yl)ethyl)boronic acid] | > 5000 nM | 7.8 nM |
| CC(C)C=C(C#N)C(=O)N1CCC[C@@H]1COC[C@H](NCC(F)(F)F)C(=O)N[C@@H](Cc1coc2ccccc12)B(O)O [Example 31, ((R)-2-(benzofuran-3-yl)-1-((S)-3-(((R)-1-(2-cyano-4-methylpent-2-enoyl)pyrrolidin-2-yl)methoxy)-2-((2,2,2-trifluoroethyl)amino)propanamido)ethyl)boronic acid] | 39.4 nM | 11.6 nM |
| COC(=O)N1CCN(C(C)(C)C=C(C#N)C(=O)N2CCC[C@H](OC(=O)N[C@@H](CC3=CCCC3)B(O)O)C2)CC1 [Example 120, ((R)-1-(((((S)-1-(2-cyano-4-(4-(methoxycarbonyl)piperazin-1-yl)-4-methylpent-2-enoyl)piperidin-3-yl)oxy)carbonyl)amino)-2-(cyclopent-1-en-1-yl)ethyl)boronic acid] | > 5000 nM | 11.6 nM |
| CC(C)(C=C(C#N)C(=O)N1CCC[C@H](OC(=O)N[C@@H](CC2=CCCC2)B(O)O)C1)N1CCC(F)(F)C1 [Example 117, ((R)-1-(((((S)-1-(2-cyano-4-(3,3-difluoropyrrolidin-1-yl)-4-methylpent-2-enoyl)piperidin-3-yl)oxy)carbonyl)amino)-2-(cyclopent-1-en-1-yl)ethyl)boronic acid] | > 5000 nM | 4.3 nM |
| CN(C[C@H]1CCCCN1C(=O)C(C#N)=CC(C)(C)N1CCC(F)(F)C1)C(=O)N[C@@H](Cc1ccccc1)B(O)O [Example 64] | > 5000 nM | > 5000 nM |
| CC(C)(C=C(C#N)C(=O)N1C2CCC1(COC(=O)N[C@@H](Cc1ccc(F)cc1)B(O)O)CC2)N1CCOCC1 [Example 82, (R)-(1-((((7-(2-cyano-4-methyl-4-morpholinopent-2-enoyl)-7-azabicyclo[2.2.1]heptan-1-yl)methoxy)carbonyl)amino)-2-(4-fluorophenyl)ethyl)boronic acid] | 1380 nM | 1.7 nM |
| CC(C)(C=C(C#N)C(=O)N1C2CCC1(COC(=O)N[C@@H](Cc1ccccc1)B(O)O)CC2)N1CCOC2(CC2)C1 [Example 116, (R)-(1-((((7-(2-cyano-4-methyl-4-(4-oxa-7-azaspiro[2.5]octan-7-yl)pent-2-enoyl)-7-azabicyclo[2.2.1]heptan-1-yl)methoxy)carbonyl)amino)-2-phenylethyl)boronic acid] | 753 nM | 1.3 nM |
| CC(C)C=C(C#N)C(=O)NCCCC[C@H](NC(=O)[C@H](C)NC(=O)C(C)C)C(=O)N[C@@H](CC(C)C)B(O)O [Example 1, ((R)-1-((S)-6-(2-cyano-4-methylpent-2-enamido)-2-((S)-2-isobutyramidopropanamido)hexanamido)-3-methylbutyl)boronic acid] | 12.1 nM | 20.9 nM |

Further lines, results first:

| IC50 [1] | IC50 [2] | Compound |
| --- | --- | --- |
| 1670 nM | 2.1 nM | C[C@@H]1CN(C(C)(C)C=C(C#N)C(=O)N2C3CCC2(COC(=O)N[C@@H](Cc2ccccc2)B(O)O)CC3)C[C@H](C)O1 [Example 114, ((R)-1-((((7-(2-cyano-4-((2S,6R)-2,6-dimethylmorpholino)-4-methylpent-2-enoyl)-7-azabicyclo[2.2.1]heptan-1-yl)methoxy)carbonyl)amino)-2-phenylethyl)boronic acid] |
| 1380 nM | 3.9 nM | CN1CCN(C(C)(C)C=C(C#N)C(=O)N2CCC[C@H](OC(=O)N[C@@H](Cc3ccccc3)B(O)O)C2)CC1 [Example 80, ((R)-1-(((((S)-1-(2-cyano-4-methyl-4-(4-methylpiperazin-1-yl)pent-2-enoyl)piperidin-3-yl)oxy)carbonyl)amino)-2-phenylethyl)boronic acid] |
| 810 nM | 3.7 nM | CC(C)(C=C(C#N)C(=O)N1C[C@@H](F)[C@@H](OC(=O)N[C@@H](Cc2ccccc2)B(O)O)C1)N1CCC(F)(F)C1 [Example 125, ((R)-1-(((((3S,4R)-1-(2-cyano-4-(3,3-difluoropyrrolidin-1-yl)-4-methylpent-2-enoyl)-4-fluoropyrrolidin-3-yl)oxy)carbonyl)amino)-2-phenylethyl)boronic acid] |
| 2420 nM | 2.4 nM | C[C@@H]1CN(C(C)(C)C=C(C#N)C(=O)N2CCCC[C@@H](OC(=O)N[C@@H](Cc3ccccc3)B(O)O)C2)C[C@H](C)O1 [Example 127, ((R)-1-(((((R)-1-(2-cyano-4-((2S,6R)-2,6-dimethylmorpholino)-4-methylpent-2-enoyl)azepan-3-yl)oxy)carbonyl)amino)-2-phenylethyl)boronic acid] |
| 2780 nM | 5.3 nM | CC(C)(C=C(C#N)C(=O)N1CCC[C@H](OC(=O)N[C@@H](Cc2ccccc2)B(O)O)C1)N1CCN(C2COC2)CC1 [Example 79] |
| 1080 nM | 0.8 nM | CC(C)(C=C(C#N)C(=O)N1C2CCC1(COC(=O)N[C@@H](Cc1ccccc1)B(O)O)CC2)N1CC2CC(C1)O2 [Example 132, ((1R)-1-((((7-(4-(6-oxa-3-azabicyclo[3.1.1]heptan-3-yl)-2-cyano-4-methylpent-2-enoyl)-7-azabicyclo[2.2.1]heptan-1-yl)methoxy)carbonyl)amino)-2-phenylethyl)boronic acid] |
| 1350 nM | 4.7 nM | C[C@H]1CN(C(C)(C)C=C(C#N)C(=O)N2CCCC[C@@H](OC(=O)N[C@@H](Cc3ccccc3)B(O)O)C2)C[C@H](C)O1 [Example 128, ((R)-1-(((((R)-1-(2-cyano-4-((2S,6S)-2,6-dimethylmorpholino)-4-methylpent-2-enoyl)azepan-3-yl)oxy)carbonyl)amino)-2-phenylethyl)boronic acid] |
| 2660 nM | 2.5 nM | CC(C)(C=C(C#N)C(=O)N1CCCC[C@H](OC(=O)N[C@@H](Cc2ccccc2)B(O)O)C1)N1CCC(F)(F)C1 [Example 106, ((R)-1-(((((S)-1-(2-cyano-4-(3,3-difluoropyrrolidin-1-yl)-4-methylpent-2-enoyl)azepan-3-yl)oxy)carbonyl)amino)-2-phenylethyl)boronic acid] |
| 574 nM | 1.9 nM | CC(C)(C)/C=C(\C#N)C(=O)N1CC[C@H](OC(=O)N[C@@H](Cc2ccccc2)B(O)O)C1 [Example 87, ((R)-1-(((((S)-1-((E)-2-cyano-4,4-dimethylpent-2-enoyl)pyrrolidin-3-yl)oxy)carbonyl)amino)-2-phenylethyl)boronic acid] |
| 2500 nM | 5.6 nM | CC(C)(C=C(C#N)C(=O)N1CCC[C@H](OC(=O)N[C@@H](Cc2ccccc2)B(O)O)C1)N1CCN2C(=O)OC[C@H]2C1 [Example 98, ((R)-1-(((((S)-1-(2-cyano-4-methyl-4-((R)-3-oxotetrahydro-3H-oxazolo[3,4-a]pyrazin-2(1H)-yl)pent-2-enoyl)piperidin-3-yl)oxy)carbonyl)amino)-2-phenylethyl)boronic acid] |
| 163 nM | 21 nM | CC(C)(C=C(C#N)C(=O)N1CCC[C@@H](CC(=O)N[C@@H](Cc2ccccc2)B(O)O)C1)N1CCC(F)(F)C1 [Example 59, ((R)-1-(2-((S)-1-(2-cyano-4-(3,3-difluoropyrrolidin-1-yl)-4-methylpent-2-enoyl)piperidin-3-yl)acetamido)-2-phenylethyl)boronic acid] |
| 1150 nM | 1.9 nM | C[C@@H]1CN(C(C)(C)C=C(C#N)C(=O)N2C3CCC2(COC(=O)N[C@@H](Cc2ccccc2)B(O)O)CC3)CCO1 [Example 118, ((R)-1-((((7-(2-cyano-4-methyl-4-((R)-2-methylmorpholino)pent-2-enoyl)-7-azabicyclo[2.2.1]heptan-1-yl)methoxy)carbonyl)amino)-2-phenylethyl)boronic acid] |
